Laboratory results taken from the NIST ThermoML archive (doi:10.1021/je700594n).
Numbers after ± are expanded uncertainties.

Key:
[1] = refractive index (Na D-line) (dimensionless); conditions: 293.15 K; 101.33 kPa; Liquid; Standard Abbe refractometry
[2] = Liquid; for mass density: 293.15 K, 101.33 kPa; for vapor or sublimation pressure: Ebulliometric method (Recirculating still)

| SMILES | refractive index [1] | mass density [2] [kg/m3] | vapor or sublimation pressure ([2]; 375.63 K) [kPa] | vapor or sublimation pressure ([2]; 392.7 K) [kPa] | vapor or sublimation pressure ([2]; 403.8 K) [kPa] | vapor or sublimation pressure ([2]; 410.86 K) [kPa] | vapor or sublimation pressure ([2]; 379.88 K) [kPa] | vapor or sublimation pressure ([2]; 401.28 K) [kPa] | vapor or sublimation pressure ([2]; 415.26 K) [kPa] | vapor or sublimation pressure ([2]; 423.97 K) [kPa] | vapor or sublimation pressure ([2]; 383.1 K) [kPa] | vapor or sublimation pressure ([2]; 404.24 K) [kPa] | vapor or sublimation pressure ([2]; 417.99 K) [kPa] | vapor or sublimation pressure ([2]; 426.54 K) [kPa] |
| --- | --- | --- | --- | --- | --- | --- | --- | --- | --- | --- | --- | --- | --- | --- |
| CCCCCO [pentan-1-ol] | 1.4098 ± 0.0007 | 814.5 ± 1 | 26.66 ± 0.31 | 53.33 ± 0.37 | 79.99 ± 0.53 | 101.32 ± 0.61 | – | – | – | – | – | – | – | – |
| CCCCCCCCC [nonane] | 1.4055 ± 0.0007 | 717.6 ± 0.7 | – | – | – | – | 26.66 ± 0.25 | 53.33 ± 0.3 | 79.99 ± 0.42 | 101.32 ± 0.49 | – | – | – | – |
| COc1ccccc1 [anisole] | 1.5171 ± 0.0007 | 994.1 ± 1.2 | – | – | – | – | – | – | – | – | 26.66 ± 0.25 | 53.33 ± 0.3 | 79.99 ± 0.43 | 101.32 ± 0.5 |
